Laboratory results as given in article PMC10037499, “High-Throughput Screen Reveals the Structure–Activity Relationship of the Antimicrobial Lasso Peptide Ubonodin” (ACS Central Science, 2023).
Where a SMILES comes first, the peptide text is derived from it.

How the values were obtained:
[1] = test system: RNA polymerase (RNAP) in E. coli MC1061; experiment: High-throughput growth-based screen with NGS (enrichment value) for RNA polymerase inhibition; type: cell-based; design: key to Experimental observation (enrichment observed in the screen): Dropout: Many variants inhibit RNAP so strongly that they cannot be detected by NGS after IPTG induction (referred to as dropout variants); details: for Experimental observation (enrichment observed in the screen): Table S4, variants whose MICs were tested; for Enrichment: case.csv of the DeepLasso code, screen stage and IPTG concentration not stated
Experimental: The single mutant library was analyzed by NGS at multiple stages of sample preparation (Figure 2A) to track its evolution throughout the screen. Specifically, the frequency of each possible aa variant was computed at each stage by summing up counts for each distinct translated sequence and dividing by the total number of counts for all variants (eq S1, SI Methods). Since cells expressing an RNAP-inhibiting ubonodin variant will have growth defects relative to cells with a nontoxic variant, RNAP-inhibiting ubonodin variants are expected to decrease in frequency throughout the screen.
First, the naïve library (digested PCR products) was sequenced. These digested PCR products were cloned into the pUboABC backbone and transformed into a recA^– cloning strain. This plasmid library was sequenced again to capture any changes upon transformation of the library into E. coli. The change between the naïve library and the cloning transformation library was minimal (Figure S6A). This plasmid library was transformed into the screening strain MC1061, and the plasmid from resulting colonies was also sequenced. The library in MC1061 was grown up en masse in liquid culture to mid log phase, and a portion of the culture was plated. These colonies were scraped, then the plasmid was isolated and sequenced. Finally, the liquid culture was induced with IPTG, after which a portion of the culture was plated and the plasmid was isolated and sequenced. It is key to note that all samples from liquid cultures were plated prior to sequencing to ensure that only viable cells were sequenced. […] The rationale for sequencing at these five different stages was the possibility that leaky expression of uboA would affect the frequency of active mutants prior to IPTG induction. Indeed, we observed that the frequency of some uboA mutants dropped as soon as they were transformed into the screening strain MC1061 while the frequency of other mutants climbed (Figure 2B).
The behavior of the point variants (i.e., variants with a single aa substitution) was examined by calculating their enrichment values, the base-2 logarithm of the ratio of the variant’s frequency at a specific step of the screen to the variant’s frequency in the cloning transformation library (eq S3, Figure S6). The most relevant enrichment value for ubonodin activity is the comparison between the post-IPTG library and the cloning transformation library (Figure 2A). […] Many variants inhibit RNAP so strongly that they cannot be detected by NGS after IPTG induction (referred to as dropout variants). […] Variants with a stop codon mutation and variants containing an aa substitution at Tyr9 or Tyr27 (positions conserved in MccJ25 and shown to be crucial for RNAP inhibition, see Figure S7)[26] have positive enrichment values (1.2–1.7), serving as quality control for the screen (Figure 3A). Strikingly, 63% of point variants decreased in frequency, indicating a high tolerance to aa substitution. […] The positions with active variants are Asn11 through Ser24 in the loop and Asp3, Ser5, and Ala7 in the ring.
The single mutant and double mutant libraries were transformed into E. coli MC1061. Colonies were resuspended in media and subcultured into a larger culture. Aliquots of the cultures were sampled prior to and after induction with 10 μM IPTG and 100 μM IPTG and plated. After 16 h of incubation, the colonies were resuspended in media and plasmids were miniprepped.
Samples were PCR amplified with barcoded primers and combined such that double mutant library samples were over-represented compared to single mutant library samples to provide sufficient coverage of the larger double mutant library. Samples were sequenced using an Illumina MiSeq Micro 300nt and an Illumina NovaSeq 6000 Sequencing System. Downstream analysis of the data was conducted with Python, MATLAB, and R.
V to reduce genomic DNA contamination. One fragment was amplified with Xho I For Lib and a […]

E. coli MC1061 = experiment: Spot dilution assay of E. coli producing the ubonodin variant from pUboABC; type: cell-based; details: variant in pUboABC backbone in E. coli MC1061, induction with 100 μM IPTG, ten-fold serial dilutions, biological duplicates
Experimental: Cultures of E. coli MC1061 transformed with the appropriate plasmids were grown. Aliquots of the cultures were sampled prior to and after induction with 100 μM IPTG, and 10-fold serial dilutions were plated. […]
All cloning was conducted by PCR amplification (using Q5 polymerase), restriction digestion, ligation, (using T4 DNA ligase), and transformation into chemically competent E. coli XL1-Blue. All cloning with a pUboABC backbone was done by plating transformation mixt ures onto Lysogeny Broth (LB) plates supplemented with 100 μg/mL ampicillin and 0.2% w/v glucose, and colonies were inoculated into LB media supplemented with 100 μ g/mL ampicillin and 0.2% w/v glucose to suppress any leaky expression. Cloning for all other plasmid constructs was done by plating transformation mixtures onto Lysogeny Broth (LB) plates supplemented with 100 μ g/ m L ampicillin, and colonies were inoculated into LB media supplemented with 100 μ g/ m L ampicillin.
Plasmids were extracted using Qiagen QIAprep Spin Miniprep Kit and sequence verified using Sanger sequencing. All primer sequences are listed in Table S7, and all plasmid constructs are […]
pUboABC was cloned by amplifying pWC99 with pQE-80 NheI For and pAT8 Nco I Rev.
The amplicon was ligated into pWC99 digested with Nhe I and Nco I. pUboBC was cloned by digesting pUboABC with Nh e I and Nco I and ligating that fragment into pQE-80 digested with Nhe I and Nco I. pUboABC S5H I16P and pUboABCD S5H I16P were cloned with overlap PCR using pWC99 as the template. One fragment was amplified with pQE-80 EcoRI For and S5H I16P Rev v2 and the second fragment was amplified with S5H I16P For v2 and pQE-80 HindII I Rev. […]
All remaining plasmid constructs were cloned with overlap PCR. One fragment was amplified with Xho I For Lib and a mutagenic reverse primer and the second fragment was amplified with NheI Rev Lib and a mutagenic forward primer. The templates and mutagenic […]
The fragments were joined with a second round of PCR and amplified with XhoI For Lib and NheI Rev Lib. Amplicons were ligated into the appropriate plasmid backbone digested with Xho I and Nhe I-HF. The plasmid backbones […]
The appropriate plasmid was transformed into electrocompetent E. coli MC1061, plated onto LB plates supplemented with 100 μ g/ m L ampicillin and 0.2% w/v glucose, and incubated at 30 °C for 16 hours. Colonies were inoculated into LB media supplemented with 100 μ g/ m L ampicillin and 0.2% w/v glucose and grown at 37 °C for 16 hours. These cultures were sub-cultured to an OD600 of 0.02 in 50 mL of LB media supplemented with 100 μg/mL ampicillin in a 250 mL flask. Once the OD600 reached 0.3, a 1 mL aliquot was sampled immediately prior to inducing the cultures with 100 μM isopropyl β-D-1-thiogalactopyranoside (IPTG). The aliquot was washed with Phosphate-Buffered Saline (PBS) two times and ten-fold serial dilutions were spotted onto LB plates supplemented with 100 μ g/ m L ampicillin and 0.2% w/v glucose. For each following timepoint, a 1 mL sample of each culture was withdrawn, washed with PBS two times, and ten- […]
fold serial dilutions were spotted onto LB plates supplemented with 100 μ g/m L ampicillin and 0.2% w/v glucose. Plates were incubated for 16 hours at 37 °C before imaging. […]
250 mL flask. Ten-fold serial dilutions of the culture were plated onto LB plates supplemented with 100 μ g/ m L ampicillin and 0.2% w/v glucose. The cultures were then grown at 37 °C, and once the OD600 reached 0.3, a 1 mL sample of the culture was withdrawn immediately before the cultures were induced with 10 μM or 100 μM IPTG and returned to grow longer. […]
All plates were incubated at 37 °C for 16 hours, after which the number of colonies was counted. Three biological replicates of this assay were done.
Co-Culture of E. coli MC1061 pUboABC and E. coli MC1061 pUboBC pUboABC (0.9 ng) and pUboBC (0.1 ng) were transformed into electrocompetent E. coli MC1061 with a one- hour outgrowth at 37 °C in LB media supplemented with 0.2% w/v glucose. […]

B. cenocepacia AU0756 = test system: B. cenocepacia AU0756
Experimental: We proceeded to test the antimicrobial activity of the selected variants against two clinical isolates of the Bcc, B. cenocepacia AU0756 and B. cenocepacia AU24362, in broth microdilution assays. […] We revisited these measurements using broth microdilution assays following the Clinical & Laboratory Standards Institute (CLSI) standard.
Broth microdilution assays of the ubonodin variants were conducted using B. cenocepacia AU0756 and B. cenocepacia AU24362 with guidelines provided by the Clinical & Laboratory Standards Institute (CLSI).

Compound	Experimental observation (enrichment observed in the screen) [1]	Inhibits Growth (E. coli MC1061)	B. cenocepacia AU0756 MIC (B. cenocepacia AU0756) [µM]	Enrichment [1]
CC[C@H](C)[C@@H]1NC(=O)[C@H](CO)NC(=O)CNC(=O)[C@H](CC(=O)O)NC(=O)CNC(=O)CNC(=O)CC[C@@H](C(=O)N[C@@H](Cc2ccc(O)cc2)C(=O)N[C@@H](Cc2ccccc2)C(=O)N[C@@H](CC(N)=O)C(=O)N[C@@H](CCCNC(=N)N)C(=O)N2CCC[C@H]2C(=O)N[C@@H](CCSC)C(=O)N[C@@H](Cc2c[nH]cn2)C(=O)N[C@@H](CC(=O)O)C(=O)N[C@@H](Cc2c[nH]cn2)C(=O)N[C@@H](CC(=O)O)C(=O)N[C@@H](Cc2c[nH]c3ccccc23)C(=O)N[C@@H](CCC(N)=O)C(=O)N[C@H](C(=O)N[C@@H](CCSC)C(=O)N[C@@H](CC(=O)O)C(=O)N[C@@H](CO)C(=O)NCC(=O)N[C@@H](Cc2ccc(O)cc2)C(=O)N[C@@H](Cc2ccc(O)cc2)C(=O)NCC(=O)O)[C@@H](C)CC)NC(=O)[C@H](C)NC1=O [I16D] (HELM PEPTIDE1{G.G.D.G.S.I.A.E.Y.F.N.R.P.M.H.D.H.D.W.Q.I.M.D.S.G.Y.Y.G}$PEPTIDE1,PEPTIDE1,1:R1-8:R3$$$V2.0)	-6.2	Yes	0.5 to 2	–
CC[C@H](C)[C@@H]1NC(=O)[C@H](CO)NC(=O)CNC(=O)[C@H](CC(=O)O)NC(=O)CNC(=O)CNC(=O)CC[C@@H](C(=O)N[C@@H](Cc2ccc(O)cc2)C(=O)N[C@@H](Cc2ccccc2)C(=O)N[C@@H](CC(N)=O)C(=O)N[C@@H](Cc2ccccc2)C(=O)N2CCC[C@H]2C(=O)N[C@@H](CCSC)C(=O)N[C@@H](Cc2c[nH]cn2)C(=O)N[C@H](C(=O)N[C@@H](Cc2c[nH]cn2)C(=O)N[C@@H](CC(=O)O)C(=O)NCC(=O)N[C@@H](CCC(N)=O)C(=O)N[C@H](C(=O)N[C@@H](CCSC)C(=O)N[C@@H](CC(=O)O)C(=O)N[C@@H](CO)C(=O)NCC(=O)N[C@@H](Cc2ccc(O)cc2)C(=O)N[C@@H](Cc2ccc(O)cc2)C(=O)NCC(=O)O)[C@@H](C)CC)[C@@H](C)CC)NC(=O)[C@H](C)NC1=O [R12F W19G] (HELM PEPTIDE1{G.G.D.G.S.I.A.E.Y.F.N.F.P.M.H.I.H.D.G.Q.I.M.D.S.G.Y.Y.G}$PEPTIDE1,PEPTIDE1,1:R1-8:R3$$$V2.0)	Dropout	Yes	>8	–
GGDGSIAEYFNRPMHIHEWQIM*SGYYG	–	–	–	4.458
CC[C@H](C)[C@@H]1NC(=O)[C@H](CO)NC(=O)CNC(=O)[C@H](CC(=O)O)NC(=O)CNC(=O)CNC(=O)CC[C@@H](C(=O)N[C@@H](Cc2ccc(O)cc2)C(=O)N[C@@H](Cc2ccccc2)C(=O)N[C@@H](CC(N)=O)C(=O)N[C@@H](CCCNC(=N)N)C(=O)N2CCC[C@H]2C(=O)N[C@@H](CCSC)C(=O)N[C@@H](Cc2c[nH]cn2)C(=O)N[C@@H](CCC(=O)O)C(=O)N[C@@H](Cc2c[nH]cn2)C(=O)N[C@@H](CC(=O)O)C(=O)N[C@@H](Cc2c[nH]c3ccccc23)C(=O)N[C@@H](CCC(N)=O)C(=O)N[C@H](C(=O)N[C@@H](CCSC)C(=O)N[C@@H](C)C(=O)N[C@@H](CO)C(=O)NCC(=O)N[C@@H](Cc2ccc(O)cc2)C(=O)N[C@@H](Cc2ccc(O)cc2)C(=O)NCC(=O)O)[C@@H](C)CC)NC(=O)[C@H](C)NC1=O [I16E D23A] (HELM PEPTIDE1{G.G.D.G.S.I.A.E.Y.F.N.R.P.M.H.E.H.D.W.Q.I.M.A.S.G.Y.Y.G}$PEPTIDE1,PEPTIDE1,1:R1-8:R3$$$V2.0)	Dropout	Yes	2 to 8	–
GGDGSI*EYFNRPMVIHDWQIMDSGMYG	–	–	–	4.338
